According to patent US20260120814A1, “SYSTEMS, METHODS, AND DEVICES FOR PREDICTING PHARMACOKINETIC INFLUENCES ON KETOGENESIS FOLLOWING ADMINISTRATION OF TRICAPRILIN” (CERECIN INC., priority 2022, published 2026):
Values after ≈ are worked out from the molar mass of the structure shown.

Tests used:
[1] = Phase I clinical pharmacokinetic study of AC-SD-03; assay type: in vivo, healthy male (Caucasian and Chinese) volunteers; conditions: human
Procedure: A clinical pharmacokinetic study can be conducted (e.g., to generate the model inputs 106) with the MCT formulation. For example, a clinical pharmacokinetic study was conducted on the tricaprilin product AC-SD-03, approved by the local Institutional Review Board and carried out in compliance with the Good Clinical Practice guidelines of the International Conference of Harmonization (ICH-GCP). It was an open-label, randomized 2-way crossover study. Twenty healthy male (Caucasian and Chinese) volunteers in an age range of 18-50 years were enrolled. All subjects had undergone a supervised overnight fast of at least 8 h until 1 h before their scheduled morning dose. The breakfast consisting of 2 pieces of toast with butter, 2 strips of bacon, 2 scrambled eggs, 113 g of hash browns, and 240 mL of whole milk was standardized for all subjects. […] An additional 60 ml of water was used to rinse the dosing cup and administered to the subjects. Water was only restricted 1 h before and 1 h after drug administration, but was allowed ad libitum at all other times. Food and other fluid intake was restricted throughout the confinement period. Upon peroral administration of a single dose of the formulation, the blood tricaprilin, octanoic acid, and ketone body concentrations were quantified. For tricaprilin, blood samples were collected at 0, 1.5, 2.0, 2.5, and 8 h. […]

[2] = PBB model population parameters fitted to the phase I clinical trial; design: species or system humans; conditions: population parameter, after peroral AC-SD-03
Text: In some scenarios the PBB model 102 can be written in the Mixtran programming language and executed using Monolix 2020R1 (e.g., Antony, France). The initial parameters and fixed-parameter ranges (e.g., such as those shown in Table 1 and/or the model inputs 106) can be obtained (e.g., from experimentation data and/or literature data).
In the following, population parameters can be obtained for the target population treated with a MCT formulation (e.g., AC-SD-03) using the Stochastic Approximation Expectation-Maximization (SAEM) algorithm. The population parameters can be considered to be log-normally distributed. Additionally, the estimation tasks of the empirical Bayes estimates (EBEs) and the conditional distribution can be performed to calculate the individual predictions and give the uncertainty of the individual parameters and the data for each individual, respectively. The individual clinical data 124 for the free fatty acid (e.g., octanoic acid) and ketones obtained from the pharmacokinetic study can be used for model validation. For instance, the accuracy of the prediction can be assessed by calculating the relative mean absolute prediction error (MAPE, %) using the following equation: […]
In some scenarios, considering that all population parameters can be within the initial ranges and prediction errors can remain at a low level, initial values (Table 1) can provide an estimate of the physiological and formulation-related influences. This leads to the following conclusions. Once tricaprilin reaches the small intestine, with a rate of 1.7 h^1, the absorption of fatty acids can become the rate-limiting step. Also, there can be more significant fluctuations in the absorption rate between different individuals as compared to the much faster lipolysis (4.6 h-1) and ketogenesis (2.6 h^1). The conversion of octanoic acid in the liver can play a minor role in the availability of the active form of tricaprilin. […] These observations can be systematically evaluated in the PPSA, and/or can be provided to the PBB model 102 as model inputs 106 or as part of a validation process.

[3] = Estimated absorption of undigested tricaprilin into blood circulation; conditions: during the first 4 hours
Procedure: As a next step, the digestion of the MCT formulation (such as AC-SD-03) in vitro can be measured. The formulation can be exposed to a gastric medium followed by lipolysis in a medium simulating intestinal conditions. The latter can result in the liberation of fatty acids expressed as the percentage of digested free fatty acid (e.g., tricaprilin), as shown at the graph 306. For each mole of tricaprilin, three moles of titratable fatty acids can be released. Within the first 5 min, 40±3% of tricaprilin can be converted to octanoic acid, followed by a gradual reduction in the digestion rate. After 15 min, the digestion profile plateaued at 83±4%. Assuming rapid absorption from the intestine, the digestion rate (kd) and extent (F) of lipolysis are mainly responsible for the bioavailability of octanoic acid. […] On a side note, there can be a certain probability that undigested tricaprilin can be absorbed into blood circulation as well. However, one estimated rate can be […] for this process. This corresponds to less than 0.5% of the total dose during the first 4 hours. […] Metabolic processes such as the hepatic conversion of tricaprilin would generally result in the formation of octanoic acid, subsequently converted to ketone bodies.

[4] = cited from earlier work
[5] = design: species or system humans; conditions: human, in vivo
Text: To estimate the parameters involved in the distribution, metabolism, and elimination of the free fatty acid (such as octanoic acid), reliable data sources can be identified for generating a training data set to describe plasma pharmacokinetics after intravenous administration of either free fatty acids (such as octanoic acid) or ketones. Pharmacokinetic data 120 related to the MCT (such as tricaprilin) and its metabolites in humans, which can be included in the training data 122 and/or used by a validation system 124 of the biopharmaceutics modeling system, is summarized in Table 2:
In some examples, ketone plasma concentration can be quantified following an intravenous bolus injection of sodium acetoacetate (n=12). Acetoacetate and D-f3-hydroxybutyrate (n=6), two main components of plasma ketones, can also be quantified upon intravenous infusion of D-f3-hydroxybutyrate at three different doses. Blood free fatty acid (such as octanoic acid) concentration can be measured upon peroral administration of the free fatty acid (e.g, octanoic acid) at five different doses to a patient population (n=3 per dose). This pharmacokinetic data 120 can be analyzed using PKanalix 2020R1 (e.g., Lixoft, Antony, France). These injections, infusions, and/or consumptions of the doses by a target patient can be provided to the PBB model 102 (e.g., as the patient data 105). […]

| Compound | tricaprilin found in blood circulation ([1]; phase I clinical trial, peroral AC-SD-03) | Cmax ([1]; male, blood, oral, 50 g AC-SD-03 (42,500 μmol tricaprilin), read-out: Cmax of undigested triglyceride) | lipolysis rate [2] | fraction of total dose absorbed as undigested tricaprilin [3] | aqueous solubility [4] | absorption rate of fatty acids [2] | ketogenesis rate [2] | VOA, volume of distribution of octanoic acid [5] | absorption rate constant (ka) [5] |
| --- | --- | --- | --- | --- | --- | --- | --- | --- | --- |
| CCCCCCCC(=O)OCC(COC(=O)CCCCCCC)OC(=O)CCCCCCC [Tricaprilin] | negligible amounts | 1.05 µM | 4.6 h⁻¹ | less than 0.5% | 0.4 µg/mL (≈ 0.85 µM) |  |  |  |  |
| CCCCCCCC(=O)O [octanoic acid] |  |  |  |  |  | 1.7 h^1 | 2.6 h^1 | 40.55 to 163.26 L | 0.23 to 3.16 h⁻¹ |
